Several values for one entry are separate records, joined by “and”; a condition that tells them apart may be missing. Equal values may be shown once. Read-outs that look alike come from different tables or passages of the source.
Columns and labels:
[1] = Pharmacokinetic study A: topical Methadone-DEET solution, human plasma; conditions: 10% solution in DEET, one-day application to the skin
[2] = Study 1: concentrations of methadone in rat plasma, topical administration versus intravenous injection; format: in vivo
Description: (§1) The test article was administered intravenously (IV) through the tail vein to animals in Group A. The injection was performed slowly. A gauze pad (1×1 cm) Saturated with 0.2 mL of the appropriate test article was applied to the clipped site on the back of the animals in Groups 2 and 3. The gauze pad was secured by occlusive tape. The animal was wrapped in gauze, which was held in place with Zonas porous tape.
(§2) Blood Collection: Blood (0.5 mL) was collected into sodium heparin tubes at the appropriate time points. The samples were centrifuged at approximately 2800 rpm at 2-8 degrees Celsius for approximately 15 minutes. Plasma was collected.

[3] = Study 2: concentrations of methadone in rat plasma, topical administration versus intravenous injection; format: in vivo
Description: as §1, §2

SMILES: CCC(=O)C(CC(C)N(C)C)(c1ccccc1)c1ccccc1 (centres unmarked) [Methadone, 6-dimethylamino-4,4-diphenyl-3-hepatone]
- Irritation of human skin by topical methadone composition [1]: lack of irritation
- Irritation of rat skin by topical application ([2]; Study 1, topical methadone solutions on rat skin over the application time): non-irritating
- Concentrations of Methadone in Rat Plasma Samples ([2]; Study 1 Group A: I.V. tail vein, 0.25 mL Test Article 1 (0.5 mg/mL Methadone-Saline Solution), 2 min, individual rats A1-A3): 67.8 ng/mL and 69.5 ng/mL
- Concentrations of Methadone in Rat Plasma Samples ([2]; Study 1 Group A: I.V. tail vein, 0.25 mL Test Article 1 (0.5 mg/mL Methadone-Saline Solution), 5 min, individual rats A1-A3): 68.9 ng/mL and 56.0 ng/mL
- Concentrations of Methadone in Rat Plasma Samples ([2]; Study 1 Group A: I.V. tail vein, 0.25 mL Test Article 1 (0.5 mg/mL Methadone-Saline Solution), 10 min, individual rats A1-A3): 57.6 ng/mL and 42.3 ng/mL
- Concentrations of Methadone in Rat Plasma Samples ([2]; Study 1 Group A: I.V. tail vein, 0.25 mL Test Article 1 (0.5 mg/mL Methadone-Saline Solution), 30 min, individual rats A1-A3): 30.9 ng/mL and 35.8 ng/mL
- Concentrations of Methadone in Rat Plasma Samples ([2]; Study 1 Group A: I.V. tail vein, 0.25 mL Test Article 1 (0.5 mg/mL Methadone-Saline Solution), 60 min, individual rats A1-A3): 24.5 ng/mL and 22.7 ng/mL
- Concentrations of Methadone in Rat Plasma Samples ([2]; Study 1 Group B: topical dorsal flank, 1 × 1 cm gauze pad with 0.2 mL Test Article 2 (Methadone-Diisopropyl Adipate Solution 23.9%), 10 min, individual rats B1-B3): BQL (below quantification limit (1.00 ng/mL))
- Concentrations of Methadone in Rat Plasma Samples ([2]; Study 1 Group B: topical dorsal flank, 1 × 1 cm gauze pad with 0.2 mL Test Article 2 (Methadone-Diisopropyl Adipate Solution 23.9%), 20 min, individual rats B1-B3): 3.25 ng/mL and 3.18 ng/mL
- Concentrations of Methadone in Rat Plasma Samples ([2]; Study 1 Group B: topical dorsal flank, 1 × 1 cm gauze pad with 0.2 mL Test Article 2 (Methadone-Diisopropyl Adipate Solution 23.9%), 45 min, individual rats B1-B3): 10.4 ng/mL and 7.24 ng/mL
- Concentrations of Methadone in Rat Plasma Samples ([2]; Study 1 Group B: topical dorsal flank, 1 × 1 cm gauze pad with 0.2 mL Test Article 2 (Methadone-Diisopropyl Adipate Solution 23.9%), 60 min, individual rats B1-B3): 15.1 ng/mL and 12.4 ng/mL
- Concentrations of Methadone in Rat Plasma Samples ([2]; Study 1 Group B: topical dorsal flank, 1 × 1 cm gauze pad with 0.2 mL Test Article 2 (Methadone-Diisopropyl Adipate Solution 23.9%), 120 min, individual rats B1-B3): 44.1 ng/mL and 57.8 ng/mL and 26.2 ng/mL
- Concentrations of Methadone in Rat Plasma Samples ([2]; Study 1 Group C: topical dorsal flank, 1 × 1 cm gauze pad with 0.2 mL Test Article 3 (Methadone-DEET Solution 10%), 10 min, individual rats C1-C3): BQL (below quantification limit (1.00 ng/mL))
- Concentrations of Methadone in Rat Plasma Samples ([2]; Study 1 Group C: topical dorsal flank, 1 × 1 cm gauze pad with 0.2 mL Test Article 3 (Methadone-DEET Solution 10%), 20 min, individual rats C1-C3): BQL (below quantification limit (1.00 ng/mL))
- Concentrations of Methadone in Rat Plasma Samples ([2]; Study 1 Group C: topical dorsal flank, 1 × 1 cm gauze pad with 0.2 mL Test Article 3 (Methadone-DEET Solution 10%), 45 min, individual rats C1-C3): 2.66 ng/mL and 2.84 ng/mL
- Concentrations of Methadone in Rat Plasma Samples ([2]; Study 1 Group C: topical dorsal flank, 1 × 1 cm gauze pad with 0.2 mL Test Article 3 (Methadone-DEET Solution 10%), 60 min, individual rats C1-C3): 3.27 ng/mL and 4.16 ng/mL
- Concentrations of Methadone in Rat Plasma Samples ([2]; Study 1 Group C: topical dorsal flank, 1 × 1 cm gauze pad with 0.2 mL Test Article 3 (Methadone-DEET Solution 10%), 120 min, individual rats C1-C3): 6.22 ng/mL and 5.97 ng/mL
- concentration at 45 min ([2]; rat, in vivo, 0.2 mL of 10% methadone solution, Study 1 Group C: topical dorsal flank, 1 × 1 cm gauze pad with 0.2 mL Test Article 3 (Methadone-DEET Solution 10%), 45 min, individual rats C1-C3, read-out: Concentrations of Methadone in Rat Plasma Samples): 3.83 ng/mL
- concentration at 60 min ([2]; rat, in vivo, 0.2 mL of 10% methadone solution, Study 1 Group C: topical dorsal flank, 1 × 1 cm gauze pad with 0.2 mL Test Article 3 (Methadone-DEET Solution 10%), 60 min, individual rats C1-C3, read-out: Concentrations of Methadone in Rat Plasma Samples): 3.88 ng/mL
- concentration at 120 min ([2]; rat, in vivo, 0.2 mL of 10% methadone solution, Study 1 Group C: topical dorsal flank, 1 × 1 cm gauze pad with 0.2 mL Test Article 3 (Methadone-DEET Solution 10%), 120 min, individual rats C1-C3, read-out: Concentrations of Methadone in Rat Plasma Samples): 6.85 ng/mL
- concentration at 10 min ([2]; rat, in vivo, 0.2 mL of 23.9% methadone solution, Study 1 Group B: topical dorsal flank, 1 × 1 cm gauze pad with 0.2 mL Test Article 2 (Methadone-Diisopropyl Adipate Solution 23.9%), 10 min, individual rats B1-B3, read-out: Concentrations of Methadone in Rat Plasma Samples): 3.02 ng/mL
- concentration at 20 min ([2]; rat, in vivo, 0.2 mL of 23.9% methadone-diisopropyl adipate solution, Study 1 Group B: topical dorsal flank, 1 × 1 cm gauze pad with 0.2 mL Test Article 2 (Methadone-Diisopropyl Adipate Solution 23.9%), 20 min, individual rats B1-B3, read-out: Concentrations of Methadone in Rat Plasma Samples): 4.14 ng/mL
- concentration at 45 min ([2]; rat, in vivo, 0.2 mL of 23.9% methadone-diisopropyl adipate solution, Study 1 Group B: topical dorsal flank, 1 × 1 cm gauze pad with 0.2 mL Test Article 2 (Methadone-Diisopropyl Adipate Solution 23.9%), 45 min, individual rats B1-B3, read-out: Concentrations of Methadone in Rat Plasma Samples): 11.5 ng/mL
- concentration at 60 min ([2]; rat, in vivo, 0.2 mL of 23.9% methadone-diisopropyl adipate solution, Study 1 Group B: topical dorsal flank, 1 × 1 cm gauze pad with 0.2 mL Test Article 2 (Methadone-Diisopropyl Adipate Solution 23.9%), 60 min, individual rats B1-B3, read-out: Concentrations of Methadone in Rat Plasma Samples): 11.3 ng/mL
- concentration at 2 min ([2]; rat, in vivo, iv, 0.125 mg/animal, Study 1 Group A: I.V. tail vein, 0.25 mL Test Article 1 (0.5 mg/mL Methadone-Saline Solution), 2 min, individual rats A1-A3, read-out: Concentrations of Methadone in Rat Plasma Samples): 73.5 ng/mL
- concentration at 5 min ([2]; rat, in vivo, iv, 0.125 mg/animal, Study 1 Group A: I.V. tail vein, 0.25 mL Test Article 1 (0.5 mg/mL Methadone-Saline Solution), 5 min, individual rats A1-A3, read-out: Concentrations of Methadone in Rat Plasma Samples): 68.7 ng/mL
- concentration at 10 min ([2]; rat, in vivo, iv, 0.125 mg/animal, Study 1 Group A: I.V. tail vein, 0.25 mL Test Article 1 (0.5 mg/mL Methadone-Saline Solution), 10 min, individual rats A1-A3, read-out: Concentrations of Methadone in Rat Plasma Samples): 61.8 ng/mL
- concentration at 30 min ([2]; rat, in vivo, iv, 0.125 mg/animal, Study 1 Group A: I.V. tail vein, 0.25 mL Test Article 1 (0.5 mg/mL Methadone-Saline Solution), 30 min, individual rats A1-A3, read-out: Concentrations of Methadone in Rat Plasma Samples): 35.3 ng/mL
- concentration at 60 min ([2]; rat, in vivo, iv, 0.125 mg/animal, Study 1 Group A: I.V. tail vein, 0.25 mL Test Article 1 (0.5 mg/mL Methadone-Saline Solution), 60 min, individual rats A1-A3, read-out: Concentrations of Methadone in Rat Plasma Samples): 22.8 ng/mL
- Irritation of rat skin by topical application ([3]; Study 2, topical methadone solutions on rat skin): lack of irritation
- Concentrations of Methadone in Rat Plasma Samples ([3]; Study 2 Group A: I.V. tail vein, 0.25 mL Test Article 1 (0.5 mg/mL Methadone-Saline Solution), 2 min, individual rats A1-A3): 72.0 ng/mL and 63.1 ng/mL
- Concentrations of Methadone in Rat Plasma Samples ([3]; Study 2 Group A: I.V. tail vein, 0.25 mL Test Article 1 (0.5 mg/mL Methadone-Saline Solution), 20 min, individual rats A1-A3): 49.2 ng/mL and 59.5 ng/mL
- Concentrations of Methadone in Rat Plasma Samples ([3]; Study 2 Group A: I.V. tail vein, 0.25 mL Test Article 1 (0.5 mg/mL Methadone-Saline Solution), 40 min, individual rats A1-A3): 33.0 ng/mL and 35.2 ng/mL
- Concentrations of Methadone in Rat Plasma Samples ([3]; Study 2 Group A: I.V. tail vein, 0.25 mL Test Article 1 (0.5 mg/mL Methadone-Saline Solution), 60 min, individual rats A1-A3): 19.7 ng/mL and 24.0 ng/mL
- Concentrations of Methadone in Rat Plasma Samples ([3]; Study 2 Group A: I.V. tail vein, 0.25 mL Test Article 1 (0.5 mg/mL Methadone-Saline Solution), 120 min, individual rats A1-A3): 19.5 ng/mL and 13.1 ng/mL and 9.26 ng/mL
- Concentrations of Methadone in Rat Plasma Samples ([3]; Study 2 Group A: I.V. tail vein, 0.25 mL Test Article 1 (0.5 mg/mL Methadone-Saline Solution), 480 min, individual rats A1-A3): 1.83 ng/mL and 1.96 ng/mL
- Concentrations of Methadone in Rat Plasma Samples ([3]; Study 2 Group A: I.V. tail vein, 0.25 mL Test Article 1 (0.5 mg/mL Methadone-Saline Solution), 1440 min, individual rats A1-A3): 2.31 ng/mL and 0.923 ng/mL
- Concentrations of Methadone in Rat Plasma Samples ([3]; Study 2 Group A: I.V. tail vein, 0.25 mL Test Article 1 (0.5 mg/mL Methadone-Saline Solution), 2160 min, individual rats A1-A3): 0.905 ng/mL and 0.944 ng/mL
- Concentrations of Methadone in Rat Plasma Samples ([3]; Study 2 Group B: topical dorsal flank, 1 × 1 cm gauze pad with 0.2 mL Test Article 2 (Methadone-Diisopropyl Adipate Solution 23.9%), 15 min, individual rats B1-B3): 1.49 ng/mL and 1.70 ng/mL
- Concentrations of Methadone in Rat Plasma Samples ([3]; Study 2 Group B: topical dorsal flank, 1 × 1 cm gauze pad with 0.2 mL Test Article 2 (Methadone-Diisopropyl Adipate Solution 23.9%), 45 min, individual rats B1-B3): 5.66 ng/mL and 3.96 ng/mL and 17.0 ng/mL
- Concentrations of Methadone in Rat Plasma Samples ([3]; Study 2 Group B: topical dorsal flank, 1 × 1 cm gauze pad with 0.2 mL Test Article 2 (Methadone-Diisopropyl Adipate Solution 23.9%), 90 min, individual rats B1-B3): 14.3 ng/mL and 27.1 ng/mL
- Concentrations of Methadone in Rat Plasma Samples ([3]; Study 2 Group B: topical dorsal flank, 1 × 1 cm gauze pad with 0.2 mL Test Article 2 (Methadone-Diisopropyl Adipate Solution 23.9%), 120 min, individual rats B1-B3): 41.4 ng/mL and 19.1 ng/mL and 44.9 ng/mL
- Concentrations of Methadone in Rat Plasma Samples ([3]; Study 2 Group B: topical dorsal flank, 1 × 1 cm gauze pad with 0.2 mL Test Article 2 (Methadone-Diisopropyl Adipate Solution 23.9%), 480 min, individual rats B1-B3): 159 ng/mL and 46.7 ng/mL and 300 ng/mL
- Concentrations of Methadone in Rat Plasma Samples ([3]; Study 2 Group B: topical dorsal flank, 1 × 1 cm gauze pad with 0.2 mL Test Article 2 (Methadone-Diisopropyl Adipate Solution 23.9%), 1440 min, individual rats B1-B3): 117 ng/mL and 168 ng/mL
- Concentrations of Methadone in Rat Plasma Samples ([3]; Study 2 Group B: topical dorsal flank, 1 × 1 cm gauze pad with 0.2 mL Test Article 2 (Methadone-Diisopropyl Adipate Solution 23.9%), 2160 min, individual rats B1-B3): 82.7 ng/mL and 126 ng/mL and 59.4 ng/mL
- Concentrations of Methadone in Rat Plasma Samples ([3]; Study 2 Group B: topical dorsal flank, 1 × 1 cm gauze pad with 0.2 mL Test Article 2 (Methadone-Diisopropyl Adipate Solution 23.9%), 2880 min, individual rats B1-B3): 49.4 ng/mL and 173 ng/mL and 34.0 ng/mL
- Concentrations of Methadone in Rat Plasma Samples ([3]; Study 2 Group C: topical dorsal flank, 1 × 1 cm gauze pad with 0.2 mL Test Article 3 (Methadone-DEET Solution 10%), 15 min, individual rats C1-C3): 0.84 ng/mL and 1.72 ng/mL and 1.04 ng/mL
- Concentrations of Methadone in Rat Plasma Samples ([3]; Study 2 Group C: topical dorsal flank, 1 × 1 cm gauze pad with 0.2 mL Test Article 3 (Methadone-DEET Solution 10%), 45 min, individual rats C1-C3): 2.42 ng/mL and 1.71 ng/mL
- Concentrations of Methadone in Rat Plasma Samples ([3]; Study 2 Group C: topical dorsal flank, 1 × 1 cm gauze pad with 0.2 mL Test Article 3 (Methadone-DEET Solution 10%), 90 min, individual rats C1-C3): 4.7 ng/mL and 2.89 ng/mL
- Concentrations of Methadone in Rat Plasma Samples ([3]; Study 2 Group C: topical dorsal flank, 1 × 1 cm gauze pad with 0.2 mL Test Article 3 (Methadone-DEET Solution 10%), 120 min, individual rats C1-C3): 3.84 ng/mL and 7.73 ng/mL and 3.39 ng/mL

Source: patent publication US20050244486A1, “Topical methadone compositions and methods for using the same” (priority 2004, published 2005)
